The values that follow are results of earlier work, collected in patent publication US20230381275A1, “MUSCULAR FUNCTION IMPROVING AGENT FOR SKELETAL MUSCLE OF WHICH FUNCTION IS DEGRADED DUE TO AGING” (OSAKA UNIVERSITY, priority 2020, published 2023).

For data set [1] the following is noted: relative to SVVYGLR (SEQ ID NO.: 1); earlier work of the inventors; cited from earlier work.
In a further data set the test system is fibroblasts. The conditions noted are these: see Patent Document 1; cited from earlier work.

For the substance SVVFGLR [SEQ ID No.: 2], the angiogenic effect entry in data set [1] is reported as “maintained”.

SVVWGLR [SEQ ID No.: 3]: the angiogenic effect result in data set [1] was “maintained”.

Consider SVVYGL [SEQ ID NO.: 4], for which the angiogenic effect result in data set [1] is “maintained”.

For SVVYGLRG [SEQ ID NO.: 10], in data set [1], the angiogenic effect result is recorded as “maintained”.

On to VVYGLR [SEQ ID NO.: 5], for which the angiogenic effect entry in data set [1] is “maintained”.

Take “fragment of osteopontin having SVVYGLR (SEQ ID No.: 1) at the C-terminus: thrombin-cleaved fragment of human osteopontin, or a portion thereof, having the sequence SVVYGLR at the C-terminus”: in the data set with fibroblasts, the “type III collagen production-promoting effect / type III collagen secretion” value was “effect equivalent to type III collagen production-promoting effect of SVVYGLR”.
